target: Genome polyprotein (Hepatitis C virus genotype 1a (isolate H77), UniProt P27958); experiment: Continuous Spectrophotometric Assay; settings: pH 6.5; 30 °C
Method: Proteolytic cleavage of the ester linkage between the Nva (L-norvaline) and the chromophore (PAP) was monitored for change in absorbance at 370 nm. Initial velocities were determined using linear regression and kinetic constants were obtained by fitting the data to the Michaelis-Menten equation.

Genome polyprotein, sequence (P27958 1027-1657 limits assumed): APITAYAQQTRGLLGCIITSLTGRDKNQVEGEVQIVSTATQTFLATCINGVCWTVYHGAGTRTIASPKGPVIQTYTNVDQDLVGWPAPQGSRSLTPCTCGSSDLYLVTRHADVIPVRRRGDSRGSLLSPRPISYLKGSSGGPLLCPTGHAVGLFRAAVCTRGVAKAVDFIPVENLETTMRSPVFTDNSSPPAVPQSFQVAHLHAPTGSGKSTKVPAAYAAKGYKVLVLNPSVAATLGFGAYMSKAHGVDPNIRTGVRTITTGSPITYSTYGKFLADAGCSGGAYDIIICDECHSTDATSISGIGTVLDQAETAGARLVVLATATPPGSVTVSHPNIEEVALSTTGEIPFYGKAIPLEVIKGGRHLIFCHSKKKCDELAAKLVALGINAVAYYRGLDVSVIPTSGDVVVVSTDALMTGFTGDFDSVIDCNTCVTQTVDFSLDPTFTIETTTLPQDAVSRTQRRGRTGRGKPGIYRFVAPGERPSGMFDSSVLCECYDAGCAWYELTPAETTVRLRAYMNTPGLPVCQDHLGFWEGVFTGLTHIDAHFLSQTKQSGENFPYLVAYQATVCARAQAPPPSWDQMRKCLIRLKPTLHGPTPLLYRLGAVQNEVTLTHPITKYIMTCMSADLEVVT

Row | Structure (SMILES) | Ki [µM]
1 | C=CCOC(=O)CNC(=O)C(=O)C(CCC)NC(=O)[C@@H]1CN(Cc2ccccc2)C(=O)N1C(=O)[C@@H](NC(=O)[C@@H](NC(=O)[C@H](CCC(=O)O)NC(=O)[C@H](CCC(=O)O)NC(C)=O)C(C)C)C(C)C (stereo partly drawn) [(4S)-4-{[(1S)-1-{[(1S)-1-{[(2S)-1-[(5S)-3-benzyl-2-oxo-5-[(1-oxo-1-{[2-oxo-2-(prop-2-en-1-yloxy)ethyl]carbamoyl}pentan-2-yl)carbamoyl]imidazolidin-1-yl]-3-methyl-1-oxobutan-2-yl]carbamoyl}-2-methylpropyl]carbamoyl}-3-carboxypropyl]carbamoyl}-4-acetamidobutanoic acid] | 1
2 | C=CCNC(=O)C(=O)C(CCC)NC(=O)[C@@H]1CN(Cc2ccccc2)C(=O)N1C(=O)[C@@H](NC(=O)[C@@H](NC(=O)[C@H](CCC(=O)O)NC(=O)[C@H](CCC(=O)O)NC(C)=O)C(C)C)C(C)C (stereo partly drawn) [(4S)-4-{[(1S)-1-{[(1S)-1-{[(2S)-1-[(5S)-3-benzyl-2-oxo-5-{[1-oxo-1-(prop-2-en-1-ylcarbamoyl)pentan-2-yl]carbamoyl}imidazolidin-1-yl]-3-methyl-1-oxobutan-2-yl]carbamoyl}-2-methylpropyl]carbamoyl}-3-carboxypropyl]carbamoyl}-4-acetamidobutanoic acid] | 1
3 | C=CCNC(=O)C(=O)C(CCC)NC(=O)[C@@H]1CN(CC(=O)OCC)C(=O)N1C(=O)[C@@H](NC(=O)[C@@H](NC(=O)[C@H](CCC(=O)O)NC(=O)[C@H](CCC(=O)O)NC(C)=O)C(C)C)C(C)C (stereo partly drawn) [(4S)-4-{[(1S)-3-carboxy-1-{[(1S)-1-{[(2S)-1-[(5S)-3-(2-ethoxy-2-oxoethyl)-2-oxo-5-{[1-oxo-1-(prop-2-en-1-ylcarbamoyl)pentan-2-yl]carbamoyl}imidazolidin-1-yl]-3-methyl-1-oxobutan-2-yl]carbamoyl}-2-methylpropyl]carbamoyl}propyl]carbamoyl}-4-acetamidobutanoic acid] | 4
4 | C=CCOC(=O)CNC(=O)C(=O)C(CCC)NC(=O)[C@@H]1CN(Cc2ccc(Cl)c(Cl)c2)C(=O)N1C(=O)[C@@H](NC(=O)[C@@H](NC(=O)[C@H](CCC(=O)O)NC(=O)[C@H](CCC(=O)O)NC(C)=O)C(C)C)C(C)C (stereo partly drawn) [(4S)-4-{[(1S)-3-carboxy-1-{[(1S)-1-{[(2S)-1-[(5S)-3-[(3,4-dichlorophenyl)methyl]-2-oxo-5-[(1-oxo-1-{[2-oxo-2-(prop-2-en-1-yloxy)ethyl]carbamoyl}pentan-2-yl)carbamoyl]imidazolidin-1-yl]-3-methyl-1-oxobutan-2-yl]carbamoyl}-2-methylpropyl]carbamoyl}propyl]carbamoyl}-4-acetamidobutanoic acid] | 0.31
5 | C=CCNC(=O)C(=O)C(CCC)NC(=O)[C@@H]1CNC(=O)N1C(=O)[C@@H](NC(=O)[C@@H](NC(=O)[C@H](CCC(=O)O)NC(=O)[C@H](CCC(=O)O)NC(C)=O)C(C)C)C(C)C (stereo partly drawn) [(4S)-4-{[(1S)-3-carboxy-1-{[(1S)-2-methyl-1-{[(2S)-3-methyl-1-oxo-1-[(5S)-2-oxo-5-{[1-oxo-1-(prop-2-en-1-ylcarbamoyl)pentan-2-yl]carbamoyl}imidazolidin-1-yl]butan-2-yl]carbamoyl}propyl]carbamoyl}propyl]carbamoyl}-4-acetamidobutanoic acid] | 46
6 | C=CCNC(=O)C(=O)C(CCC)NC(=O)[C@@H]1CN(CC(=O)OCC)C(=O)N1C(=O)[C@@H](NC(=O)[C@@H](NC(=O)OCC(C)C)C(C)C)C(C)C (stereo partly drawn) [ethyl 2-[(4S)-3-[(2S)-3-methyl-2-[(2S)-3-methyl-2-{[(2-methylpropoxy)carbonyl]amino}butanamido]butanoyl]-2-oxo-4-{[1-oxo-1-(prop-2-en-1-ylcarbamoyl)pentan-2-yl]carbamoyl}imidazolidin-1-yl]acetate] | 78
7 | C=CCOC(=O)CNC(=O)C(=O)C(CCC)NC(=O)[C@@H]1CN(Cc2ccccc2)C(=O)N1C(=O)[C@@H](NC(=O)[C@@H](NC(=O)[C@H](CCC(=O)OC(C)(C)C)NC(=O)[C@H](CCC(=O)OC(C)(C)C)NC(C)=O)C(C)C)C(C)C (stereo partly drawn) [tert-butyl (4S)-4-{[(1S)-1-{[(1S)-1-{[(2S)-1-[(5S)-3-benzyl-2-oxo-5-[(1-oxo-1-{[2-oxo-2-(prop-2-en-1-yloxy)ethyl]carbamoyl}pentan-2-yl)carbamoyl]imidazolidin-1-yl]-3-methyl-1-oxobutan-2-yl]carbamoyl}-2-methylpropyl]carbamoyl}-4-(tert-butoxy)-4-oxobutyl]carbamoyl}-4-acetamidobutanoate] | > 100
8 | C=CCNC(=O)C(=O)C(CCC)NC(=O)[C@@H]1CN(Cc2ccccc2)C(=O)N1C(=O)[C@@H](NC(=O)[C@@H](NC(=O)[C@H](CCC(=O)OC(C)(C)C)NC(=O)[C@H](CCC(=O)OC(C)(C)C)NC(C)=O)C(C)C)C(C)C (stereo partly drawn) [tert-butyl (4S)-4-{[(1S)-1-{[(1S)-1-{[(2S)-1-[(5S)-3-benzyl-2-oxo-5-{[1-oxo-1-(prop-2-en-1-ylcarbamoyl)pentan-2-yl]carbamoyl}imidazolidin-1-yl]-3-methyl-1-oxobutan-2-yl]carbamoyl}-2-methylpropyl]carbamoyl}-4-(tert-butoxy)-4-oxobutyl]carbamoyl}-4-acetamidobutanoate] | 61
9 | C=CCNC(=O)C(=O)C(CCC)NC(=O)[C@@H]1CN(CC(=O)OCC)C(=O)N1C(=O)[C@@H](NC(=O)[C@@H](NC(=O)[C@H](CCC(=O)OC(C)(C)C)NC(=O)[C@H](CCC(=O)OC(C)(C)C)NC(C)=O)C(C)C)C(C)C (stereo partly drawn) [tert-butyl (4S)-4-{[(1S)-4-(tert-butoxy)-1-{[(1S)-1-{[(2S)-1-[(5S)-3-(2-ethoxy-2-oxoethyl)-2-oxo-5-{[1-oxo-1-(prop-2-en-1-ylcarbamoyl)pentan-2-yl]carbamoyl}imidazolidin-1-yl]-3-methyl-1-oxobutan-2-yl]carbamoyl}-2-methylpropyl]carbamoyl}-4-oxobutyl]carbamoyl}-4-acetamidobutanoate] | 30
10 | C=CCOC(=O)CNC(=O)C(=O)C(CCC)NC(=O)[C@@H]1CN(Cc2ccc(Cl)c(Cl)c2)C(=O)N1C(=O)[C@@H](NC(=O)[C@@H](NC(=O)[C@H](CCC(=O)OC(C)(C)C)NC(=O)[C@H](CCC(=O)OC(C)(C)C)NC(C)=O)C(C)C)C(C)C (stereo partly drawn) [tert-butyl (4S)-4-{[(1S)-4-(tert-butoxy)-1-{[(1S)-1-{[(2S)-1-[(5S)-3-[(3,4-dichlorophenyl)methyl]-2-oxo-5-[(1-oxo-1-{[2-oxo-2-(prop-2-en-1-yloxy)ethyl]carbamoyl}pentan-2-yl)carbamoyl]imidazolidin-1-yl]-3-methyl-1-oxobutan-2-yl]carbamoyl}-2-methylpropyl]carbamoyl}-4-oxobutyl]carbamoyl}-4-acetamidobutanoate] | > 100
11 | C=CCNC(=O)C(=O)C(CCC)NC(=O)[C@@H]1CNC(=O)N1C(=O)[C@@H](NC(=O)[C@@H](NC(=O)[C@H](CCC(=O)OC(C)(C)C)NC(=O)[C@H](CCC(=O)OC(C)(C)C)NC(C)=O)C(C)C)C(C)C (stereo partly drawn) [tert-butyl (4S)-4-{[(1S)-4-(tert-butoxy)-1-{[(1S)-2-methyl-1-{[(2S)-3-methyl-1-oxo-1-[(5S)-2-oxo-5-{[1-oxo-1-(prop-2-en-1-ylcarbamoyl)pentan-2-yl]carbamoyl}imidazolidin-1-yl]butan-2-yl]carbamoyl}propyl]carbamoyl}-4-oxobutyl]carbamoyl}-4-acetamidobutanoate] | 69
